ChEMBL document CHEMBL1201862, “PubChem BioAssay data set” (2004)
Active and inactive are the calls of the source.

Tests used:
A549 = assay: A549 cell toxicity, dose response, cytotoxicity control, plate reader, cherry-pick samples (AID 687028); type: functional, cell-based; conditions: Homo sapiens
[1] = HepG2 cell cytotoxicity, dose response, cytotoxicity control for non-replicating M. tuberculosis project (AID 489018); type: functional; conditions: Mycobacterium tuberculosis
[2] = microbe, parasite or virus in culture; type: functional; conditions: Mycobacterium tuberculosis
[3] = target: T1, Rac GTPase-activating protein 1 (Homo sapiens, UniProt Q9H0H5); assay: MgcRacGAP GTPase-activating activity inhibitors, confirmation, biochemical, ADP Hunter fluorescence, primary and confirmatory (AID 624330); type: functional
T1 sequence (Q9H0H5 whole entry): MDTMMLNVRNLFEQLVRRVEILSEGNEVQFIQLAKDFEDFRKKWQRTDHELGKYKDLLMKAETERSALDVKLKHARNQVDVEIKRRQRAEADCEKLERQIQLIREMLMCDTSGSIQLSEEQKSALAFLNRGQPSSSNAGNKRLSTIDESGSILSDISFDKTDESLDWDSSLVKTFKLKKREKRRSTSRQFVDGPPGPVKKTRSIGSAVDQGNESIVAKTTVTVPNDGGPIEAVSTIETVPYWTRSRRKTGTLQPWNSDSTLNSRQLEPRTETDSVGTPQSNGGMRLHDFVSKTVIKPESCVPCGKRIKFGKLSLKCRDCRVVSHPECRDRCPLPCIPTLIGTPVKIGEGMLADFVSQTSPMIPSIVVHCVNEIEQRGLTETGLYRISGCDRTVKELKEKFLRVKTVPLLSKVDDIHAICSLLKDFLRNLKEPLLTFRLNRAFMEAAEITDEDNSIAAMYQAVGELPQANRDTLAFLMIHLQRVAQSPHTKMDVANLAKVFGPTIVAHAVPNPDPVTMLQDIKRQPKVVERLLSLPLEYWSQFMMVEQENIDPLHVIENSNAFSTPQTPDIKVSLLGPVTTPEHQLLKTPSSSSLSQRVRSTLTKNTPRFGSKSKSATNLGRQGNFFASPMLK

[4] = inhibitors of HIV Env-driven cell fusion, dose response, cherry-pick (AID 652057); type: functional, cell-based
[5] = CEM21 lymphoblast cell cytotoxicity, dose response, cytotoxicity control for viral fusion inhibitor project, CellTiter-Glo luminescence, cherry-picked (AID 652042); type: functional, cell-based;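 also: potency for signal decrease meaning cytotoxicity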
[6] = off-target signal loss in HeLa-CEM21 co-culture – HeLa F-luc CTL cells, cherry-picked, counter-screen for HIV-1 Env fusion inhibitor project, dose response (AID 652040); type: functional, cell-based;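 also: potency for signal decrease marking cytotoxic or nonspecific inhibition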
[7] = HeLa cell cytotoxicity, dose response, cytotoxicity control for MgcRacGAP inhibitor project (AID 624300); type: functional
cells [8] = type: functional
[9] = inhibitors of clade B AD8 Env fusion, dose response, cell-based, cherry-pick (AID 652062); type: functional;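 also: luciferase signal from cell-cell fusion driven by HIV-1 clade B AD8 Env; potency is for inhibitors of fusion seen as a drop in luminescence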
[10] = ZM109 Env clade C HIV-1 fusion inhibitors, dose response, HeLa effector, CEM target cells, luciferase, cherry-pick (AID 652058); type: functional, cell-based
[11] = THP-1 cell cytotoxicity, dose response, cytotoxicity control for non-replicating M. tuberculosis project (AID 489025); type: functional
[12] = target: T2, Short transient receptor potential channel 4 (Mus musculus, UniProt Q9QUQ5); assay: mouse TRPC4 channel inhibitors, dose response, cell-based, HEK293 TRPC4/mu-opioid, Fluo-4 calcium (AID 434942); type: functional;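 also: potency of inhibitors blocking the TRPC4 calcium response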
T2 sequence (Q9QUQ5 whole entry): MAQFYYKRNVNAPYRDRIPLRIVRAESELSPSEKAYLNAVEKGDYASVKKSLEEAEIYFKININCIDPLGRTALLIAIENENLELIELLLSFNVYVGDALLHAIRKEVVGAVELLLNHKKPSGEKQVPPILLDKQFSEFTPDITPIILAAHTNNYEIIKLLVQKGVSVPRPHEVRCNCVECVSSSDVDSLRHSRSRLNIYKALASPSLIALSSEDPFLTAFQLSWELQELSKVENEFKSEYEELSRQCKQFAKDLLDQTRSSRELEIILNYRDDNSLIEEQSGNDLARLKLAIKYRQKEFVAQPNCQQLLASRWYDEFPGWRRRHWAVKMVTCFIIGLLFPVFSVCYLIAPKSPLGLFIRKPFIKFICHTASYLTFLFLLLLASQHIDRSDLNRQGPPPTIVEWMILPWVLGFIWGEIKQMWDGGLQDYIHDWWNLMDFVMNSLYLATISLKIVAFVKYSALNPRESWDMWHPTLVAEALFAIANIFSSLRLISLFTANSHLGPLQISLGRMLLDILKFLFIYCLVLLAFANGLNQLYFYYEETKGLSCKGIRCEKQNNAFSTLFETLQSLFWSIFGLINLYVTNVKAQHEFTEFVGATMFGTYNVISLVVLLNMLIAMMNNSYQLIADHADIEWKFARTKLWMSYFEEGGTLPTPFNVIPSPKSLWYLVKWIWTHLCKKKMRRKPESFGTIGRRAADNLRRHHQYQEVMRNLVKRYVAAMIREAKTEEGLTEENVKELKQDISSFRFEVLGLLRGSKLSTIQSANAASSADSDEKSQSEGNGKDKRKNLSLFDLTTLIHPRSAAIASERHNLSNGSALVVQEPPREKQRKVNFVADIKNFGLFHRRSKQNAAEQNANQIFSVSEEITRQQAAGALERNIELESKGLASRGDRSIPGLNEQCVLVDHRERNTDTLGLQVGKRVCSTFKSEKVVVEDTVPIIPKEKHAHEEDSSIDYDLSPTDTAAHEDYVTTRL

[13] = target: SWI/SNF-related matrix-associated actin-dependent regulator of chromatin subfamily A member 2 (Homo sapiens, UniProt P51531); assay: Luminescence-based cell-based high throughput dose response assay to identify activators of the function of SWI/SNF related, matrix associated, actin dependent regulator of chromatin, subfamily a, member 2 (SMARCA2, BRM).; type: functional
[14] = Counterscreen for activators of the function of SWI/SNF related, matrix associated, actin dependent regulator of chromatin, subfamily a, member 2 (SMARCA2, BRM): Luminescence-based cell-based high throughput dose response assay to identify non-selective compounds using the VP16 reporter assay.; type: functional
[15] = target: T3, DNA repair protein RAD52 homolog (Homo sapiens, UniProt P43351); type: functional, biochemical
T3 sequence (P43351 whole entry): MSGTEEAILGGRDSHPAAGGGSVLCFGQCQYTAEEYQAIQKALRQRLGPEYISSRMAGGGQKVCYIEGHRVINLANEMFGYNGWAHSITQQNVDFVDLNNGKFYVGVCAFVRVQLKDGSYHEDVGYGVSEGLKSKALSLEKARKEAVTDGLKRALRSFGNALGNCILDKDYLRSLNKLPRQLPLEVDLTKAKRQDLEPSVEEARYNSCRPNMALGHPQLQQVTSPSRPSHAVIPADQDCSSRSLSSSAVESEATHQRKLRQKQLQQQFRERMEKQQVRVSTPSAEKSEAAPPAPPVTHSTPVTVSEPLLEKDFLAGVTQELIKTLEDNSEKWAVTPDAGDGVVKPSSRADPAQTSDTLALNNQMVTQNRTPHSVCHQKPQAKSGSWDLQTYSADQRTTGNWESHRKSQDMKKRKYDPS

[16] = HEK293 cell viability, dose response, counter-screen for EBV LMP1 inhibitor project, dry powder, set 2 (AID 624374); type: functional
[17] = cytotoxicity toward NIH3T3 fibroblasts, dose response, counter-screen, cell-based, ATP luminescence, mouse fibroblasts (AID 2010); type: functional;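 also: cells exposed to compound for about 90 hours before reading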
cells [18] = assay: cells
[19] = inhibitors of intracellular T. cruzi replication, confirmation, NIH3T3 host cells, beta-gal luminescence (AID 2044); type: functional, cell-based;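 also: intracellular parasites grown in NIH/3T3 mouse fibroblasts as host cells; luminescent beta-galactosidase reporter signal from transgenic T. cruzi replicating inside host cells; inhibitors lower the luminescence signal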
[20] = target: Arf-GAP with SH3 domain, ANK repeat and PH domain-containing protein 1 (Homo sapiens, UniProt Q9ULH1); type: functional;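 also: biochemical fluorescence polarization dose–response screen measuring inhibition of ASAP1; ASAP1 GAP domain stimulating GTP hydrolysis by truncated human ARF1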
[21] = target: Broad substrate specificity ATP-binding cassette transporter ABCG2 (Homo sapiens, UniProt Q9UNQ0); assay: ABCG2 efflux pump inhibitors, dose response, Ig-MXP3 cells, flow cytometry (AID 1690); type: functional
Streptococcus = assay: Group A Streptococcus viability loss, dose response, counter-screen for streptokinase expression inhibitor project, luminescence, BacTiterGlo (AID 1915); type: functional, organism-based;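 also: potency for reduction of bacterial viability or growth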
Streptokinase A = target: T4, Streptokinase A (Streptococcus pyogenes serotype M1, UniProt P10520); assay: S. pyogenes streptokinase expression inhibitors, potency, dose response, plasminogen activation absorbance, OD405 (AID 1914); type: functional, Streptococcus pyogenes M1 GAS;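 also: secreted streptokinase activity via plasminogen activation per viability signal from cell pellet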
T4 sequence (P10520 whole entry): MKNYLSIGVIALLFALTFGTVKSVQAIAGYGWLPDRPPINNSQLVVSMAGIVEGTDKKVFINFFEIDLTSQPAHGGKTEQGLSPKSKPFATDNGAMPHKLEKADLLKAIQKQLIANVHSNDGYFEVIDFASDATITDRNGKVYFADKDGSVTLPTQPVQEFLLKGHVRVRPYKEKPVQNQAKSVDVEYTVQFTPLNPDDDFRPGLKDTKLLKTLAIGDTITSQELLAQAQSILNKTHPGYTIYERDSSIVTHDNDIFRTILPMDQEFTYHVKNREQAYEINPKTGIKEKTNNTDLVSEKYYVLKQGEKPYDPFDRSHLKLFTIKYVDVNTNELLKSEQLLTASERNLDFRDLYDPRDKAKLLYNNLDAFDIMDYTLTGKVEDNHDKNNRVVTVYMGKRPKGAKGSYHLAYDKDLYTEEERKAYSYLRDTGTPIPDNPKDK

[22] = system: Streptococcus sp. 'group A'; assay: growth inhibition of control SK(-) GAS strain, dose response, counter-screen for streptokinase expression inhibitor project, luminescence, kanamycin, BacTiterGlo, confirmation (AID 1900); type: functional, organism-based
[23] = target: Matrix metalloproteinase-14 (Homo sapiens, UniProt P50281); assay: Dose Response confirmation of uHTS hits for a small molecule inhibitors of MT1-MMP activation in a fluorescence assay set 2.; type: functional
[24] = Luminescence Cell-Based Dose Response HTS to Identify Activators of Luciferase Translation or Activity in H4 […] Cells. [Related pubchem assays: 1829 (Project Summary), 1814 (Primary HTS)]; type: functional
[25] = target: Eukaryotic translation initiation factor 4E (Mus musculus, UniProt P63073); assay: eIF4E–eIF4G protein interaction inhibitors, dose response, biochemical, TR-FRET (AID 855); type: functional;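 also: potency for disrupting eIF4E binding to eIF4GI seen as loss of FRET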
H4 = assay: Luminescence Cell-Based Dose Response HTS to Identify Activators of 5'UTR Stem-Loop Driven Prion Protein mRNA Translation in H4 Neuroglioblastoma Cells. [Related pubchem assays: 1829 (Project Summary), 1814 (Primary HTS)]; type: functional; conditions: Homo sapiens
[26] = Luminescence Cell-Based Dose Confirmation HTS to Identify Activators of 5'UTR Stem-Loop Driven Alpha-Synuclein mRNA Translation in H4 Neuroglioblastoma Cells. [Related pubchem assays: 1829 (Project Summary), 1814 (Primary HTS)]; type: functional
[27] = target: Induced myeloid leukemia cell differentiation protein Mcl-1 (Homo sapiens, UniProt Q07820); type: functional
Beta-lactamase [28] = target: T5, Beta-lactamase (Pseudomonas aeruginosa, UniProt Q79MP6); assay: IMP-1 metallo-beta-lactamase inhibitors, dose response, selectivity assay for VIM-2 inhibitor project, biochemical, epi-absorbance (AID 1920)
Beta-lactamase [29] = target: Beta-lactamase (Salmonella choleraesuis (strain SC-B67), UniProt Q5J463); assay: Epi-absorbance-based counterscreen for selective VIM-2 inhibitors: dose response biochemical high throughput screening assay to identify inhibitors of TEM-1 serine-beta-lactamase.
Trypsin = Trypsin (Sus scrofa, UniProt P00761); assay: porcine trypsin inhibitors, dose response, selectivity assay for Rce1 protease inhibitor project, biochemical, quenched peptide fluorescence, cherry-pick (AID 488789)
Beta-lactamase [30] = target: T5, Beta-lactamase; assay: […] counterscreen for selective VIM-2 inhibitors: dose response biochemical high throughput screening assay to identify inhibitors of IMP-1 metallo-beta-lactamase.

T5 sequence (Q79MP6 whole entry): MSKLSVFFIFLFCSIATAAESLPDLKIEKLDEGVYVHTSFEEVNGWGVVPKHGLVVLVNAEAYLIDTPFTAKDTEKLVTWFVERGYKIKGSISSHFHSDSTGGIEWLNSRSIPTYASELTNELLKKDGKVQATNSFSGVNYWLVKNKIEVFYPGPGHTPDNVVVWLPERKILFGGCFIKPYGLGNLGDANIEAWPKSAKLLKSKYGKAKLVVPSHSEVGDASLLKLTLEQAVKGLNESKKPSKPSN
Chain of Trypsin (P00761 whole entry): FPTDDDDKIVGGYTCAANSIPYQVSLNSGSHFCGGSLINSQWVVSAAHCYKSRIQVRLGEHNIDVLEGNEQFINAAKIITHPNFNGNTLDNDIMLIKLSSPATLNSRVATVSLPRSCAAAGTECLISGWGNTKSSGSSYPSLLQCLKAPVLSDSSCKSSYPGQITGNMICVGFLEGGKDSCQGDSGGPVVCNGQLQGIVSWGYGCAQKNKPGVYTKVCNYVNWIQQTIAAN
Chain of Broad substrate specificity ATP-binding cassette transporter ABCG2 (Q9UNQ0 whole entry): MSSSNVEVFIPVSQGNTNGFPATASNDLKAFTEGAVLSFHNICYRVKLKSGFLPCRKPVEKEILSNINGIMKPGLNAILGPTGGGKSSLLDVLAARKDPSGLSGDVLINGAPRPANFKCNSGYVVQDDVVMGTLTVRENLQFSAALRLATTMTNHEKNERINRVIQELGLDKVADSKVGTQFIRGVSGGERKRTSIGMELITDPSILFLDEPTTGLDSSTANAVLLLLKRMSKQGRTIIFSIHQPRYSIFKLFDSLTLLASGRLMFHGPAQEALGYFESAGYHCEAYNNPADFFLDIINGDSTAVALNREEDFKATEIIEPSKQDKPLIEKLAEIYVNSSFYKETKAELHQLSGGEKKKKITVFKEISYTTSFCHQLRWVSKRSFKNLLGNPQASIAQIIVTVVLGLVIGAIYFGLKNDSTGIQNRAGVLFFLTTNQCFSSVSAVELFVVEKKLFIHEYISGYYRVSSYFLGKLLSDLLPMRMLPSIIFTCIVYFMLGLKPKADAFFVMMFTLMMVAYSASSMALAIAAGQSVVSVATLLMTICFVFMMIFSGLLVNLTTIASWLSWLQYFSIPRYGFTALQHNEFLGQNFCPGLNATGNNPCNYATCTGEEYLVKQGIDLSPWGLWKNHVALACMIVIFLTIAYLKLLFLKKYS
Chain of Arf-GAP with SH3 domain, ANK repeat and PH domain-containing protein 1 (Q9ULH1 whole entry, the tested form may be a part): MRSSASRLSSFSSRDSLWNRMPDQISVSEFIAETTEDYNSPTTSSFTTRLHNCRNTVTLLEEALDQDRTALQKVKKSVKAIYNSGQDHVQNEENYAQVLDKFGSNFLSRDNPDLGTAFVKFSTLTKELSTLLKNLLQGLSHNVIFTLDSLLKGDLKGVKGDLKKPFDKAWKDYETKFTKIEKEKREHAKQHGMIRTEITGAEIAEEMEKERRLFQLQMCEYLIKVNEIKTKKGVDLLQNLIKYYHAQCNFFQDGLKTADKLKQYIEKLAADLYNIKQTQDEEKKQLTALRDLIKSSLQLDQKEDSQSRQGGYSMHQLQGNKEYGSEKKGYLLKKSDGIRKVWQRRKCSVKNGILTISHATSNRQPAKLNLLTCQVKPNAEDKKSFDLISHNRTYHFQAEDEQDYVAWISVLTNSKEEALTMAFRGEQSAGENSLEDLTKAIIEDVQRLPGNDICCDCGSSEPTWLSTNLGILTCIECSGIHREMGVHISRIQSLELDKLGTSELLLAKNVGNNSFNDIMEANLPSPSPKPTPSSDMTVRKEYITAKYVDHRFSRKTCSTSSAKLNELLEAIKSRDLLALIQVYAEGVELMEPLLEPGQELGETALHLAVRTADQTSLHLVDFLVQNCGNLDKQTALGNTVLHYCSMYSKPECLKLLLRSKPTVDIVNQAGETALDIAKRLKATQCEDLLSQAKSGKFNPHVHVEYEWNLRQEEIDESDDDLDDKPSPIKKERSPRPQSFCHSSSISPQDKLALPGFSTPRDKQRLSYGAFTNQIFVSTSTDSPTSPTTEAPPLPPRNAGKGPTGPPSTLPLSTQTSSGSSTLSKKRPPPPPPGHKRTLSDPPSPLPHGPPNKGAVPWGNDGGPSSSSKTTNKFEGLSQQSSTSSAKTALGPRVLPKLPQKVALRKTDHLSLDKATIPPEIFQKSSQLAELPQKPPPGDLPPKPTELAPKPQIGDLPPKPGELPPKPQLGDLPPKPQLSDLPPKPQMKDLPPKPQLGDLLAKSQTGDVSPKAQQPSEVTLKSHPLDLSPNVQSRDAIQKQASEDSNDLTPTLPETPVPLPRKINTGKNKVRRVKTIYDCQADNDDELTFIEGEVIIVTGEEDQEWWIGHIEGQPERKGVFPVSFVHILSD
Chain of Beta-lactamase (Salmonella choleraesuis (strain SC-B67), UniProt Q5J463) (Q5J463 whole entry): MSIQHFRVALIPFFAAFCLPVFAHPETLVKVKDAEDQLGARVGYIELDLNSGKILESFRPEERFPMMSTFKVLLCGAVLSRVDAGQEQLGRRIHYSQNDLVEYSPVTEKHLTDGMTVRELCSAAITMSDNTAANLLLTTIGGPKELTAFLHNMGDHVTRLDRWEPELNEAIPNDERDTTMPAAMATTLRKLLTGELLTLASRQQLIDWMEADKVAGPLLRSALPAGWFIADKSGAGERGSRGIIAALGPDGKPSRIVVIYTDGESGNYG
Chain of SWI/SNF-related matrix-associated actin-dependent regulator of chromatin subfamily A member 2 (P51531 whole entry): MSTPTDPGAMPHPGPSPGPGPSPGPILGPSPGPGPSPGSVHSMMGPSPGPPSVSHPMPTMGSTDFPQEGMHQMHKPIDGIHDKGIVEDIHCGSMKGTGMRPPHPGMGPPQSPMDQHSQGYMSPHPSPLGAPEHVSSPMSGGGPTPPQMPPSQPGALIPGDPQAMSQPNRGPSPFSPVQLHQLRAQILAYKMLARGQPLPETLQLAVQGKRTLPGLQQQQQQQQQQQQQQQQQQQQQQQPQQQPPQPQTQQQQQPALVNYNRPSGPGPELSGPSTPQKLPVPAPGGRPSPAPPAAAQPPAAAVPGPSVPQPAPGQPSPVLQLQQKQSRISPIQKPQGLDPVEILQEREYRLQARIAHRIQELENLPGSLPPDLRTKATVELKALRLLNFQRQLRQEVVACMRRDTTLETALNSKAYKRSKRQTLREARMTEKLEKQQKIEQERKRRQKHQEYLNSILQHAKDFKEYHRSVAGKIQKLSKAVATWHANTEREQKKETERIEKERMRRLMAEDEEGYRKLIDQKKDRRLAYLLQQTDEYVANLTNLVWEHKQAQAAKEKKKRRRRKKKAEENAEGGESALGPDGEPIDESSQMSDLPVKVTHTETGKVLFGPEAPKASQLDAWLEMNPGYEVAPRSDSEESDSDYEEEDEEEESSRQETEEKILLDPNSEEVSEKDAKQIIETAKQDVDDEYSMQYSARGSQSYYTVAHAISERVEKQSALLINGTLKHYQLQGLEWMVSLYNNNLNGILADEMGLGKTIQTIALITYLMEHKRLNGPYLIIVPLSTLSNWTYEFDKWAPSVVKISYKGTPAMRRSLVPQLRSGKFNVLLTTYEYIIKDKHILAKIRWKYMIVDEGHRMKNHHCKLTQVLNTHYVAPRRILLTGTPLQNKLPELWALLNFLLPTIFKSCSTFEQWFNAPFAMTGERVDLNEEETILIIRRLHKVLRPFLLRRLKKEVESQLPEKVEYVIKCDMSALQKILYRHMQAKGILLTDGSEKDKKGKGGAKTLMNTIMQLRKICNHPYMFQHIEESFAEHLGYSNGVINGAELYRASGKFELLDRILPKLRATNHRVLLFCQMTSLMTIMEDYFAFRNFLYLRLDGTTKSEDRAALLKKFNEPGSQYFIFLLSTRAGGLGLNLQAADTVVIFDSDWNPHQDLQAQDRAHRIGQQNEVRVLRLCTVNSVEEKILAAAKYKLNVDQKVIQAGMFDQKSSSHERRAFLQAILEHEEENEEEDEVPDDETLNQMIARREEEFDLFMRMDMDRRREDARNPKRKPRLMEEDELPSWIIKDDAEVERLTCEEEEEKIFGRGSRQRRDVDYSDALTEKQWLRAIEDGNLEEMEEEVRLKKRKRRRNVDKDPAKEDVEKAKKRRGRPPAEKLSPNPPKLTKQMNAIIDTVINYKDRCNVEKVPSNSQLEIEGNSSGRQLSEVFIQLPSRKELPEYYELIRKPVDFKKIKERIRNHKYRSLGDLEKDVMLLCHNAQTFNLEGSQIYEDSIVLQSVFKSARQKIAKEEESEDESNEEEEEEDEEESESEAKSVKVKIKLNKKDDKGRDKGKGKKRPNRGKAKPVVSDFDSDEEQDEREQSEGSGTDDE
Chain of Induced myeloid leukemia cell differentiation protein Mcl-1 (Q07820 whole entry): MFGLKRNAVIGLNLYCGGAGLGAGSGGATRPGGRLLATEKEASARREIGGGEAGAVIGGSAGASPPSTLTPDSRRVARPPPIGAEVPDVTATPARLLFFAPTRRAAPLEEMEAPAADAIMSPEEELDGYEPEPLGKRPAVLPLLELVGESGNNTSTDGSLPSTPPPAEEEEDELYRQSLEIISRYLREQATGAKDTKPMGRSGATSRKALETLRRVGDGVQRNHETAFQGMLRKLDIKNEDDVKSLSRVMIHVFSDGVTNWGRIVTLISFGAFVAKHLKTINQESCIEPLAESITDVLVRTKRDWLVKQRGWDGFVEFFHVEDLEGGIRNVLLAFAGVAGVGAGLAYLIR
Chain of Eukaryotic translation initiation factor 4E (P63073 whole entry): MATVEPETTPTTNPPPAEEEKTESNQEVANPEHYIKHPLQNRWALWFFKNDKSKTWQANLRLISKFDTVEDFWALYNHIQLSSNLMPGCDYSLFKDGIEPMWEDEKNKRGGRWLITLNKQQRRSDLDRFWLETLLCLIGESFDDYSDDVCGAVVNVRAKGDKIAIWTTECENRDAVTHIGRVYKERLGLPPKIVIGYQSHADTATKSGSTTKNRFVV

## COc1ccc(-c2ccc3c(c2)[C@@H]2[C@@H](CCN2C(=O)C2CCOCC2)[C@@H](CO)N3C)cc1
A549
  AC50: 27.8 µM (active)

## CC(NCCCOc1cccc2ccccc12)c1ccccc1 (centres undefined)
[1]
  CC50: > 20 µM (active)
[2]
  CC50: 23.1 µM (active)
[3]
  IC50: 161 µM (active)
[4]
  AC50: 2.23 µM (active)
[5]
  AC50: 17.4 µM (active)
[6]
  AC50: 6.96 µM (active)
[7]
  CC50: 36.2 µM (active)
Cells [8]
  IC50: 35.9 µM (active)
[9]
  AC50: 19.2 µM (active)
[10]
  AC50: 14.6 µM (active)
[11]
  CC50: 13.5 µM (active)

## COc1nc(NC(=N)N)nc2ccc(C)cc12
[12]
  EC50: 5.31 µM (active)
[13]
  EC50: > 3.38 µM (active)
[14]
  EC50: > 91.2 µM (inactive)
[15]
  AC50: 9.39 µM (active)

## CN(C)c1ccc2c(c1)[C@@H]1C[C@H](CC(=O)NCc3ccc(Oc4ccccc4)cc3)O[C@@H](CO)[C@@H]1O2
[16]
  AbsAC35: 41.71 µM

## COc1cc2oc3ccc(C#Cc4ccccn4)cc3c(=O)c2cc1OC
[17]
  EC50: > 60 µM (not active)
Cells [18]
  EC50: 0.183 µM (active)
[19]
  EC50: < 0.1 µM (active)
[20]
  IC50: 44.1 µM (inactive)

## COc1cccc(-c2nc(N3CC(C)CC(C)C3)c3ccccc3n2)c1O (centres undefined)
[17]
  EC50: > 60 µM (not active)
[21]
  EC50: 1.04 µM (active)
Streptococcus
  EC50: 82.5 µM (active)
Streptokinase A
  EC50: 6.53 µM (active)
[22]
  EC50: 5.15 µM (active)
[19]
  EC50: 1.84 µM (active)

## COc1ccc2nc(N3C(=O)C(c4c(O)[nH]c5ccccc45)=NC3=S)sc2c1
[23]
  IC50: 37.6 µM (inactive)
[24]
  EC50: 34.5 µM (active)
[25]
  IC50: > 64 µM (inactive)
Streptococcus
  EC50: 2.41 µM (active)
[22]
  EC50: 0.744 µM (active)
H4
  EC50: 101 µM (active)
[26]
  EC50: > 120 µM (not active)
[27]
  IC50: > 54 µM (active)

## CCCCn1c(S)nnc1-c1sccc1C
Beta-lactamase [28]
  IC50: > 59.6 µM (inactive)
Beta-lactamase [29]
  IC50: > 59.6 µM (inactive)
Trypsin
  AC50: 10 µM (active)
Beta-lactamase [30]
  IC50: > 59.6 µM (inactive)
